These results are taken from patent US7915050B2, “Regulatory genes for plant differentiation and growth, and use of the same” (National University Corporation Nagoya University, priority 2005, dated 2011).

Experiment [1] has as its target T1, GID1 (Oryza sativa subsp. japonica, UniProt Q6L545).
T1 construct: GST (tag of vector pGEX-4T) (N); made in house
Put plainly: Saturation/Scatchard and association/dissociation analysis of GA binding to recombinant GID1. On the set-up: species or system rice. The settings on record: Scatchard plot analysis. On the procedure:
Panel a) depicts the saturability for the GA binding of GID1. […] Bar represents the standard deviation (n=3). Panel b) depicts the results of a Scatchard plot for the data of binding shown in a. The Kd value was calculated (correlation coefficient R^2=0.96) from t three independent experimental results. Panel c) depicts the ^3H-GA association/dissociation rate to GID1. […] Bar represents the standard deviation (n=3). […] Upper panel, none of three recombinant proteins of mutant GID1s (GID1-1, 1-2, and 1-3) corresponding to the three gid1 alleles interacted with GA4. […] Bar represents the standard deviation (n=3). Bottom panel, Coomassie brilliant blue stain of the recombinant proteins used in this experiment. Dot represents GID or tag proteins in the SDS-PAGE profile. In this experiment, almost equal amounts of proteins were used for each (80 pmol). Panel e) depicts the gross morphologies of a GID1-overexpressing plant (Actin1 promoter-GID1, right) and wild type plant (control, left) three months after seeding. Bar=50 cm. f) dose-dependent GA response in the elongation of the second leaf sheath of GID1overexpressing plant (closed triangle) and wild type (closed circle). Bar represents the standard deviation (n=5).
In the gibberellin-binding assay, [1,2,16,17-^3H4]16,17-dihydro-GA4 was used as a labeled GA4. In vitro GA-binding assays were carried out using previous methods with some modifications (Nakajima, M. et al., Biochem. Biophys. Res. Comm. 241, 782-786 (1997)). […] The eluate of the binding buffer (0.6 ml) was discarded, the subsequent eluate (0.2 ml) was collected, and the radioactivity was measured. The specific binding activity, reflecting the number of displaceable GA binding sites, was calculated by subtracting the amount of nonspecific binding from the amount of total binding. […]
Next, the kinetics of the binding of GID1 to GA was analyzed. To calculate the Kd value of GID1 to GA, the saturability of GA binding was measured using various concentrations of GA4 derivative (FIG. 4a). […]

Experiment [2] concerns the target T1, GID1. Put plainly: Competition of various GAs in the binding of the 3H-GA4 derivative to GID1 protein. On the set-up: species or system rice. How it is done:
In the gibberellin-binding assay, [1,2,16,17-^3H4]16,17-dihydro-GA4 was used as a labeled GA4. In vitro GA-binding assays were carried out using previous methods with some modifications (Nakajima, M. et al., Biochem. Biophys. Res. Comm. 241, 782-786 (1997)). The purified recombinant GID1 protein (400 pmol) was dissolved in 300 μl of binding buffer [20 mM Tris-HCl (pH 7.6), 5 mM 2-mercaptoethanol, and 0.1 M NaCl], and incubated with 100 μl of ^3H4-16,17-dihydroGA4 (6 pmol) for two hours at 25° C., either in the absence of non-labeled GA4 (total binding) or in the presence of 833-fold excess non-labeled GA4 (total non-specific binding). Then, 0.1 ml of the reaction mixture was loaded onto a NAP-5 column (Amersham Biosciences, Piscataway, N.J.). The eluate of the binding buffer (0.6 ml) was discarded, the subsequent eluate (0.2 ml) was collected, and the radioactivity was measured. The specific binding activity, reflecting the number of displaceable GA binding sites, was calculated by subtracting the amount of nonspecific binding from the amount of total binding. The same as above can also be carried out for other GAs.
Thus, it was postulated that, like GID2, GID1 is involved in the degradation of SLR1, or that GID1 functions upstream of SLR1 in GA signaling. […] Based on this phenotypic characteristic of gid1, it was predicted that GID1 was involved in GA perception. To verify this possibility, the interactions between GID1 and radioisotope-labeled GA was directly examined using non-equilibrium gel filtration (Nakajima, M. et al., Biochem. Biophys. Res. Comm. 241, 782-786 (1997)). […] Next, ligand specificity of GID1 was tested by using competition between the tritiated GA4 derivative and various GAs. The concentration of each GA that is required for a 50% inhibition (IC50) of the binding of the tritiated GA4 derivative to GID1 is shown in Table 1. […] The IC50 value for each of these GAs was well consistent with their physiological activity.

T1 sequence (Q6L545 whole entry): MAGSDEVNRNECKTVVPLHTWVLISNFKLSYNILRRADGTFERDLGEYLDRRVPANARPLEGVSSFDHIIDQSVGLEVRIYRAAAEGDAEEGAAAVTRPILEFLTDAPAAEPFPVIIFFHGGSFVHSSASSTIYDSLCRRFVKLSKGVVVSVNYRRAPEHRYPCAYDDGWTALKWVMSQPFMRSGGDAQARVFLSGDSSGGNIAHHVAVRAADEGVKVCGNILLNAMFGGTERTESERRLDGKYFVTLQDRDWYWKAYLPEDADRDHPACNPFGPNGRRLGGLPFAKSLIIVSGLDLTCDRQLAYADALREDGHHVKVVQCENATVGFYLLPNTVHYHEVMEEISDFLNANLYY

Usually Kd stands for the free concentration of one partner at which half of the binding sites on the other are occupied at equilibrium, for simple one-to-one binding. With `CC1C[C@]23C[C@H]1CCC2[C@]12CC[C@H](O)[C@](C)(C(=O)O1)[C@H]2[C@@H]3C(=O)O` (stereo partly shown) [H2-GA4, 16,17-dihydro-GA4], the Kd at GID1 [1] was 1400 nM. In addition, the “affinity of recombinant GID1 for the GA (in words)” value on GID1 [2] is on record as “high affinity”. Besides, the IC50 on GID1 [2] (competition with tritiated GA4 derivative for binding to recombinant GID1, read-out: IC50 (concentration required for 50% inhibition)) came to 1000 nM. For the same molecule, at GID1 [2] (relative competition, GA4 given as 100), the “Rel % (relative value)” value was “(20) %”.
